One assay has as its target hOX1R (Homo sapiens, UniProt O43613). Description: FLIPR Ca2+ flux assay, hOX1R. The format is cell-based. The conditions noted are these: CHO cells; agonist 70 pM Ala-6,12 orexin-A; rat orexin-1 receptor; read-out: hOX1R FLIPR IC50.
Another assay concerns the target human orexin-2 receptor (Homo sapiens (Human), UniProt O43614). In words: FLIPR Ca2+ flux assay, hOX2R. The format is cell-based. Conditions: CHO cells expressing human orexin-2 receptor; agonist 70 pM Ala-6,12 orexin-A.

Some results are limits rather than exact numbers.

human orexin-2 receptor, sequence (O43614 whole entry): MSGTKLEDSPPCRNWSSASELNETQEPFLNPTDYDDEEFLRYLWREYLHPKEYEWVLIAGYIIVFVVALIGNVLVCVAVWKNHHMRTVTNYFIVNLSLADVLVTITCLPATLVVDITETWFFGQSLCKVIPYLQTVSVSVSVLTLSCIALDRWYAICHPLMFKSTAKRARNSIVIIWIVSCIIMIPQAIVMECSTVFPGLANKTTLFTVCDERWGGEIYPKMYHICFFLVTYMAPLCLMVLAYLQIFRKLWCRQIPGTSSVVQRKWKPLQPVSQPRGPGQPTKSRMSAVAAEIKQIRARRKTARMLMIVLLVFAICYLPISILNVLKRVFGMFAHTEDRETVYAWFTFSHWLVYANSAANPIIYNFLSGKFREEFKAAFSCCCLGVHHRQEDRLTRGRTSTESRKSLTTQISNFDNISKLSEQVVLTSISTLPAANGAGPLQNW

With `C[C@@H]1CC[C@@H](c2nc(CCO)c(-c3ccccc3)o2)CN1C(=O)c1ccccc1-n1nccn1` [Example 70, (2-(2H-1,2,3-Triazol-2-yl)phenyl)((2R,5R)-5-(4-(2-hydroxyethyl)-5-phenyloxazol-2-yl)-2-methylpiperidin-1-yl)methanone], the IC50 on hOX1R turned out to be 38 nM; on human orexin-2 receptor, 59 nM.

For the compound `C[C@@H]1CC[C@@H](c2nc(CCF)c(-c3ccccc3)o2)CN1C(=O)c1ccccc1-n1nccn1` [Example 71, (2-(2H-1,2,3-triazol-2-yl)phenyl)((2R,5R)-5-(4-(2-fluoroethyl)-5-phenyloxazol-2-yl)-2-methylpiperidin-1-yl)methanone], the IC50 worked out at 70 nM on hOX1R and 61 nM at human orexin-2 receptor.

Regarding `Cc1ccc(-n2nccn2)c(C(=O)N2C[C@H](c3ncc(C)o3)CC[C@H]2C)c1` [Example 72, (5-Methyl-2-(2H-1,2,3-triazol-2-yl)phenyl)((2R,5R)-2-methyl-5-(5-methyloxazol-2-yl)piperidin-1-yl)methanone], the half-inhibitory concentration (IC50) on hOX1R is 4540 nM; on human orexin-2 receptor it was 433 nM.

For the compound `C[C@@H]1CC[C@@H](c2ncc(C(C)(C)C)o2)CN1C(=O)c1ccccc1-n1nccn1` [Example 73, (2-(2H-1,2,3-Triazol-2-yl)phenyl)((2R,5R)-5-(5-(tert-butyl)oxazol-2-yl)-2-methylpiperidin-1-yl)methanone], the IC50 on hOX1R turned out to be 151 nM; at human orexin-2 receptor, 30 nM.

Take `C[C@@H]1CC[C@@H](c2ncc(-c3ccccc3)o2)CN1C(=O)c1ccccc1-n1nccn1` [Example 74, (2-(2H-1,2,3-Triazol-2-yl)phenyl)((2R, 5R)-2-methyl-5-(5-phenyloxazol-2-yl)piperidin-1-yl)methanone]: the concentration for half-maximal inhibition (IC50) on hOX1R is 55 nM; at human orexin-2 receptor it was 111 nM.

Consider `C[C@@H]1CC[C@@H](c2ncc(C3CCC3)o2)CN1C(=O)c1ccccc1-n1nccn1` [Example 75, (2-(2H-1,2,3-Triazol-2-yl)phenyl)((2R, 5R)-5-(5-cyclobutyloxazol-2-yl)-2-methylpiperidin-1-yl)methanone], for which the values for the IC50 at hOX1R and on human orexin-2 receptor were 59 nM and 16 nM, respectively.

Regarding `C[C@@H]1CC[C@@H](c2ncc(C3CC3)o2)CN1C(=O)c1ccccc1-n1nccn1` [Example 76, (2-(2H-1,2,3-Triazol-2-yl)phenyl)((2R, 5R)-5-(5-cyclopropyloxazol-2-yl)-2-methylpiperidin-1-yl)methanone], the IC50 on hOX1R is 973 nM; at human orexin-2 receptor, 33 nM.

For the compound `C[C@@H]1CC[C@@H](c2nc(-c3ccccc3)c(-c3ccccc3)o2)CN1C(=O)c1ccccc1-n1nccn1` [Example 77, (2-(2H-1,2,3-Triazol-2-yl)phenyl)((2R,5R)-5-(4,5-diphenyloxazol-2-yl)-2-methylpiperidin-1-yl)methanone], the IC50 is 451 nM at hOX1R and 515 nM on human orexin-2 receptor.

Consider “((2R,5R)-5-(4-(2-Hydroxypropan-2-yl)-5- methyloxazol-2-yl)-2-methylpiperidin-1-yl)(2- methoxyphenyl)methanone [Example 30]”, for which the IC50 is above 10000 nM on hOX1R and 29.4 nM on human orexin-2 receptor.

(Values after US9828368B2 (MERCK SHARP & DOHME CORP., priority 2013, dated 2017).)
